The source of these data is US20240317722A1, “HETEROARYL-3-PIPERIDINEDIONE COMPOUND AND USE THEREOF” (Medshine Discovery Inc., priority 2021, published 2024).

Data set [1] relates to MDA-MB-231. In words: Anti-proliferative effect in MDA-MB-231 (CellTiter-Glo). The class given is cell-based, human. The settings on record: MDA-MB-231, 3 days. The method, then:
This assay studied the inhibitory effect of the compounds on cell proliferation by detecting the effect of the test compounds on the in vitro activity of tumor cells MV4-11 and MDA-MB-231.
The tumor cell lines were cultured in an incubator at 37° C., 5% CO2 or 0% CO2according to the above culture conditions. The cells were periodically passaged, and cells in logarithmic growth phase were taken for plating. • 2. Cell plating • (1). Cells were stained with trypan blue and viable cells were counted. • (2).
• (3). 90 μL of cell suspension was added to each well of the culture plate, and culture medium without cells was added to the blank control well. • (4). The plate was incubated overnight in an incubator at 37° C., 5% CO2 or 0% CO2, and 100% relative humidity. • 3. Preparation of a compound storage plate
Preparation of a 400× compound storage plate: The compounds were diluted with DMSO in a gradient from the highest concentration to the lowest concentration. The plates were prepared freshly at each time for use. • 4. Preparation of 10× compound working solution and treatment of cells with compounds • (1). Preparation of 10× compound working solution: compound or DMSO was added, and the well content was mixed to uniform by aspiration and expelling with pipette. 78 μL of cell culture medium was added to a 96-well plate with a V-shaped bottom. 2 μL of the compound from the 400× compound storage plate was added to the cell culture medium in the 96-well plate. 2 μL of DMSO was added to the vehicle control and the blank control. After adding compound or DMSO, the well content was mixed to uniform by aspiration and expelling with pipette. • (2). Dosing: 10 μL of 10× compound working solution was added to the cell culture plate. 10 μL of DMSO-cell culture mix solution was added to the vehicle control and blank control. • (3). The 96-well cell plate was placed back into the incubator and cultured for 3 days. • 5. CellTiter-Glo luminescence cell viability detection
The following steps were performed according to the instruction of Promega CellTiter-Glo luminescence cell viability detection kit (Promega-G7573). • (1). The CellTiter-Glo buffer was thawed and allowed to stand to reach room temperature; • (2). CellTiter-Glo substrate was allowed to stand to reach room temperature; • (3). 10 mL of CellTiter-Glo buffer was added to CellTiter-Glo substrate in a bottle to dissolve the substrate to formulate CellTiter-Glo working solution; • (4). The working solution was vortexed slowly for fully dissolution; • (5). The cell culture plates were taken out and allowed to stand for 30 minutes to equilibrate to room temperature; • (6). 50 μL (equal to half the volume of cell culture solution in each well) of Cell Titer-Glo working solution was added into each well. The cell plate was wrapped with aluminum foil to protect the cell plate from light; • (7). The culture plates were shaken on an orbital shaker for 2 minutes to induce cell lysis; • (8). The culture plates were left at room temperature for 10 minutes to stabilize the luminescence signal; • (9). The luminous signal was detected on the 2104 En Vision plate reader. • 6. Data analysis
The following formula was used to calculate the inhibition rate (IR) of the test compounds: IR (%)=(RLU of the vehicle control−RLU of the compound)/(RLU of the vehicle control−RLU of the blank control)*100%. The inhibition rates of the compounds at different concentrations were calculated in Excel, and then GraphPad Prism software was used to graph the inhibition curves and calculate the relevant parameters, including the minimum inhibition rate, maximum inhibition rate and IC50.

Data set [2] can be described thus: Pharmacokinetics of the compound in rats. The class given is in vivo, SD rats. An excerpt:
In this study, SD male rats were selected as the test animals, and the LC/MS/MS method was used to quantitatively determine the drug concentration at different time points in the plasma of rats intravenously or orally administered the test compound, so as to evaluate the pharmacokinetic profile of the test compound in rats.
Sprague Dawley (SD) rats (male, 200-300 g, 7-10 weeks old, Beijing Vital River).
A clear solution or suspension of the test compound was intravenously injected into SD rats (fasted overnight) via tail or given to SD rats (fasted overnight) by gavage. For intravenous injection administration, blood was collected from the jugular vein at 0 h (before administration) and 0.083, 0.25, 0.5, 1, 2, 4, 6, 8, and 24 h after administration. Each sample was collected about 0.25 mL. Heparin sodium was added to anti-coagulate. Blood samples were collected and placed on wet ice, and centrifuged within 1 hour to separate the plasma (centrifugation conditions: 6000 g, 3 minutes, 2-8° C.). Plasma samples were stored in a −80° C. refrigerator before analysis; For oral gavage administration, blood was collected from the jugular vein at 0 h (before administration) and 0.083, 0.25, 0.5, 1, 2, 4, 6, 8, and 24 h after administration. Each sample was collected about 0.25 mL. Heparin sodium was added to anti-coagulate. Blood samples were collected and placed on wet ice, and centrifuged within 1 hour to separate the plasma (centrifugation conditions: 6000 g, 3 minutes, 2-8° C.). Plasma samples were stored in an −80° C. refrigerator before analysis. Through blood drug concentration data at different time points, Phoenix WinNonlin8.2.0 was used to calculate pharmacokinetic parameters, providing parameters such as AUC0-t, AUC0-∞, MRT0-∞, Cmax, Tmax, and T1/2, etc. and their mean and standard deviation.

The mark [3] stands for this setting: administration by gavage (10 mg/kg).

On to `COCCOc1cc(NC(=O)NCc2ccc3c(C4CCC(=O)NC4=O)coc3c2)cc(Cl)c1C` (stereo not shown) [WX005], for which, in data set [1] (Homo sapiens, 72 h), the IC50 was 4.7 nM. Besides, the “Max. IR (maximum inhibition rate)” value in data set [1] worked out at 80.7%. Also, in data set [2] (setting [3]), the “Area under the plasma concentration-time curve (0-inf)” value is 264.34 µM·h, the Peak concentration was found to be 14.4 µM and the Time to peak is 5.33 h. The “Area under the plasma concentration-time curve (0-inf)” value in data set [2] (intravenous injection (2 mg/kg)) is 464.10 µM·h. In data set [2] (male, Sprague-Dawley, rat, plasma, PO 10 mg/kg vs IV 2 mg/kg, read-out: Bioavailability F), the bioavailability was found to be 11.4%. The clearance in data set [2] (male, Sprague-Dawley, rat, plasma, intravenous injection (2 mg/kg)) came out at 0.145 mL/min/kg. Moreover, the Vd in data set [2] (male, Sprague-Dawley, rat, plasma, intravenous injection (2 mg/kg), read-out: Apparent volume of distribution) was found to be 0.121 L/kg. The half-life in data set [2] (male, Sprague-Dawley, rat, plasma, intravenous injection (2 mg/kg), read-out: Elimination half-life (converted)) was 11.1 h.
